Laboratory results published in US20250235543A1, “MODIFIED PROTEINS AND PROTEIN DEGRADERS” (Cullgen (Shanghai), Inc., priority 2021, published 2025).
Where two headings read alike, the source gives them in different places.

How the values were obtained:
cyclin D1 = test: Cyclin D1 percentage degradation in Calu-1 cells (immunoblotting); format: cell-based; details: 16 hours
Procedure, shortened: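 Cells were rinsed once in cold PBS and lysed in cold RIPA buffer containing protease and phosphatase inhibitors, with gentle agitation at 4° C. for 30 min. Lysates were spun at 13,000 rpm for 10 min at 4° C., protein was measured by BCA, and samples were boiled in Laemmli buffer at 99° C. for 5 min before SDS-PAGE immunoblotting.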

CDK4 = molecular target: T1, CDK4 (Homo sapiens, UniProt P11802); test: CDK4 percentage degradation in Calu-1 cells (immunoblotting); format: cell-based; details: for inhibition at 0.2 µM: read-out: CDK4 Degradation (200 nM)
T1 construct: endogenous in cells; host or cells: Calu-1
T1 sequence (P11802 2-303 limits assumed): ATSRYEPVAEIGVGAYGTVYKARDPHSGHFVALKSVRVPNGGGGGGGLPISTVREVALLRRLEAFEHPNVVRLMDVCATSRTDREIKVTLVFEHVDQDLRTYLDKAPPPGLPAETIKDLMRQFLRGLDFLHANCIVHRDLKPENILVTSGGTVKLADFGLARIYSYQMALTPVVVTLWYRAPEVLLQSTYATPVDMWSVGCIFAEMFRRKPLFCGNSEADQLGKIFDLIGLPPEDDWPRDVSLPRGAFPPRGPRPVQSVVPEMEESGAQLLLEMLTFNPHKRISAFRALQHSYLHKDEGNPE
T1 sequence (P24385 whole entry partner): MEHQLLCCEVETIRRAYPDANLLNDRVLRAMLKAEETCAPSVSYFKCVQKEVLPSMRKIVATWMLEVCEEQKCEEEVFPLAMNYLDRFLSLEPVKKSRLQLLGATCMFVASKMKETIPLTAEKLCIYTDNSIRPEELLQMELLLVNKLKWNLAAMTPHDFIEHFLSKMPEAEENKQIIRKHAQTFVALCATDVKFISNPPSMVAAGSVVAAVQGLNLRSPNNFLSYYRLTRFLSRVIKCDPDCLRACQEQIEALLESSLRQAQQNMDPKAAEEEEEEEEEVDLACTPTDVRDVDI
T1 sequence (Q16531 2-1140 limits assumed, further chain): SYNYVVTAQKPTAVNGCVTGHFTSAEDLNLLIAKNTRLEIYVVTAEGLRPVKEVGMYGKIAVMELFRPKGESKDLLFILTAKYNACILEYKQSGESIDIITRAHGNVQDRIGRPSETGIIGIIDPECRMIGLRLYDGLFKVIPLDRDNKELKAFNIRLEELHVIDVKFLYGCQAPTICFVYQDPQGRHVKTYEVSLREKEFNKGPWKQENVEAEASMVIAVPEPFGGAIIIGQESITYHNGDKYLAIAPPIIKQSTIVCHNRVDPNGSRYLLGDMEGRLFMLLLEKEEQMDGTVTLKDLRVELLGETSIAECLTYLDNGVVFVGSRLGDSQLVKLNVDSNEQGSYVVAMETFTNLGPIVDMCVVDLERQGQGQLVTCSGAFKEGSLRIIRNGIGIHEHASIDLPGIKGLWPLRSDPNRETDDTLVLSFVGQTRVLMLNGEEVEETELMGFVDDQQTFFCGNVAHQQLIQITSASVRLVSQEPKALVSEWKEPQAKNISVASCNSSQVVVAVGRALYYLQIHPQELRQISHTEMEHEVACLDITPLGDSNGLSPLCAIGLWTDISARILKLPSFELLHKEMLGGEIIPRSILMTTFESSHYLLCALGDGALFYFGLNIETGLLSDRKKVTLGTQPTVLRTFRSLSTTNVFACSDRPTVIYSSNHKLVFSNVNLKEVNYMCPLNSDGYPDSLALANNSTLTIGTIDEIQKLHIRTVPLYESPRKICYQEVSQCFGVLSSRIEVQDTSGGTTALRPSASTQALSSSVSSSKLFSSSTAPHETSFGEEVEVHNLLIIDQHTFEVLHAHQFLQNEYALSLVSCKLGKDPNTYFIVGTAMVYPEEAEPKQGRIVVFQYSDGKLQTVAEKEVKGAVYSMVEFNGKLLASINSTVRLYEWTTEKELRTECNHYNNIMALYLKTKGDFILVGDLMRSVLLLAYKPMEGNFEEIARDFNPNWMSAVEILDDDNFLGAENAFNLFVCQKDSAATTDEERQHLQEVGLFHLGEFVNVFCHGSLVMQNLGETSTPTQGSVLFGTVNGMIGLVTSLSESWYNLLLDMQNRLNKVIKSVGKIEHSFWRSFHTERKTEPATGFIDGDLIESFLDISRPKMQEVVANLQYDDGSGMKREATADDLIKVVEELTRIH
Procedure, shortened: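 Cultured cells were rinsed once in cold PBS and lysed in cold RIPA buffer containing protease and phosphatase inhibitors, with gentle agitation at 4° C. for 30 min. Lysates were centrifuged at 13,000 rpm for 10 min at 4° C., and protein was quantified by BCA. Samples were then separated by SDS-PAGE, detected with ECL, and the CDK4 bands quantified in Image Lab.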

Structure (SMILES)	CyclinD1 Degradation (200 nM) (cyclin D1)	inhibition at 0.2 µM (CDK4; Calu-1 cells, 200 nM, 16 hours)	inhibition at 0.2 µM (CDK4; Calu-1, 16 h)	CyclinD1 Degradation (10 μM) (cyclin D1; 10 μM)	inhibition at 10 µM (CDK4; Calu-1 cells, 10 μM, 16 hours, read-out: CDK4 Degradation (10 μM))
CC(=O)c1c(C)c2cnc(Nc3ccc(N4CCN(CC(=O)NCCOCCOCCNc5cccc(C(=O)Nc6cc(C)n(C)n6)c5C)CC4)cn3)nc2n(C2CCCC2)c1=O [CPD-067, 3-((2-(2-(2-(2-(4-(6-((6-Acetyl-8-cyclopentyl-5-methyl-7-oxo-7,8-dihydropyrido[2,3-d]pyrimidin-2-yl)amino)pyridin-3-yl)piperazin-1-yl)acetamido)ethoxy)ethoxy)ethyl)amino)-N-(1,5-dimethyl-1H-pyrazol-3-yl)-2-methylbenzamide]	A (protein percentage degradation >=80%)	50 to 80%			
CC(=O)c1c(C)c2cnc(Nc3ccc(N4CCN(CC(=O)NCCOCCOCCOCCOCCOCCNc5ccc(C(=O)Nc6ncc(C(F)(F)F)s6)c(C)c5)CC4)cn3)nc2n(C2CCCC2)c1=O [CPD-003, 4-((1-(4-(6-((6-Acetyl-8-cyclopentyl-5-methyl-7-oxo-7,8-dihydropyrido[2,3-d]pyrimidin-2-yl)amino)pyridin-3-yl)piperazin-1-yl)-2-oxo-6,9,12,15,18-pentaoxa-3-azaicosan-20-yl)amino)-2-methyl-N-(5-(trifluoromethyl)thiazol-2-yl)benzamide]	D (protein percentage degradation <30%)	< 30%			
CC(=O)c1c(C)c2cnc(Nc3ccc(N4CCN(CC(=O)NCCCCCNc5cc(Cl)ccc5C(=O)Nc5ccc(C)c(C6CC6)n5)CC4)cn3)nc2n(C2CCCC2)c1=O [CPD-378, 2-((5-(2-(4-(6-((6-acetyl-8-cyclopentyl-5-methyl-7-oxo-7,8-dihydropyrido[2,3-d]pyrimidin-2-yl)amino)pyridin-3-yl)piperazin-1-yl)acetamido)pentyl)amino)-4-chloro-N-(6-cyclopropyl-5-methylpyridin-2-yl)benzamide]	B (protein percentage degradation <80%, and >=50%)	< 30%			
CC(=O)c1c(C)c2cnc(Nc3ccc(N4CCN(CC(=O)NCCNc5cccc(C(=O)Nc6nc(C)c(C)s6)c5C)CC4)cn3)nc2n(C2CCCC2)c1=O [CPD-092, 3-((2-(2-(4-(6-((6-Acetyl-8-cyclopentyl-5-methyl-7-oxo-7,8-dihydropyrido[2,3-d]pyrimidin-2-yl)amino)pyridin-3-yl)piperazin-1-yl)acetamido)ethyl)amino)-N-(4,5-dimethylthiazol-2-yl)-2-methylbenzamide]	D (protein percentage degradation <30%)	< 30%			
CC(=O)c1c(C)c2cnc(Nc3ccc(N4CCN(C(=O)CCCCNc5ccc(C)c(C(=O)Nc6nc(C)c(C)s6)c5)CC4)cn3)nc2n(C2CCCC2)c1=O [CPD-108, 5-((5-(4-(6-((6-Acetyl-8-cyclopentyl-5-methyl-7-oxo-7,8-dihydropyrido[2,3-d]pyrimidin-2-yl)amino)pyridin-3-yl)piperazin-1-yl)-5-oxopentyl)amino)-N-(4,5-dimethylthiazol-2-yl)-2-methylbenzamide]	D (protein percentage degradation <30%)		< 30%		
CC(=O)c1c(C)c2cnc(Nc3ccc(N4CCN(CC(=O)NCCOCCOCCC(=O)Nc5ccc(Cl)cc5C(=O)Nc5nc(C)c(C)s5)CC4)cn3)nc2n(C2CCCC2)c1=O [CPD-142, 2-(3-(2-(2-(2-(4-(6-((6-Acetyl-8-cyclopentyl-5-methyl-7-oxo-7,8-dihydropyrido[2,3-d]pyrimidin-2-yl)amino)pyridin-3-yl)piperazin-1-yl)acetamido)ethoxy)ethoxy)propanamido)-5-chloro-N-(4,5-dimethylthiazol-2-yl)benzamide]	D (protein percentage degradation <30%)	< 30%			
CC(=O)c1c(C)c2cnc(Nc3ccc(N4CCN(CC(=O)NCCCCCCCCC(=O)Nc5ccccc5C(=O)Nc5nc(C)c(C)s5)CC4)cn3)nc2n(C2CCCC2)c1=O [CPD-113, 2-(9-(2-(4-(6-((6-Acetyl-8-cyclopentyl-5-methyl-7-oxo-7,8-dihydropyrido[2,3-d]pyrimidin-2-yl)amino)pyridin-3-yl)piperazin-1-yl)acetamido)nonanamido)-N-(4,5-dimethylthiazol-2-yl)benzamide]	A (protein percentage degradation >=80%)	50 to 80%			
CC(=O)c1c(C)c2cnc(Nc3ccc(N4CCN(C(=O)CCCCCCC(=O)Nc5ccccc5C(=O)Nc5nc(C)c(C)s5)CC4)cn3)nc2n(C2CCCC2)c1=O [CPD-161, 2-(8-(4-(6-((6-Acetyl-8-cyclopentyl-5-methyl-7-oxo-7,8-dihydropyrido[2,3-d]pyrimidin-2-yl)amino)pyridin-3-yl)piperazin-1-yl)-8-oxooctanamido)-N-(4,5-dimethylthiazol-2-yl)benzamide]	D (protein percentage degradation <30%)		< 30%		
CC(=O)c1c(C)c2cnc(Nc3ccc(N4CCN(CC(=O)NCCOCCOCCOCCOCCNC(=O)CNc5ccc(C(=O)Nc6ncc(C)s6)c(C)c5)CC4)cn3)nc2n(C2CCCC2)c1=O [CPD-013, 4-((20-(4-(6-((6-Acetyl-8-cyclopentyl-5-methyl-7-oxo-7,8-dihydropyrido[2,3-d]pyrimidin-2-yl)amino)pyridin-3-yl)piperazin-1-yl)-2,19-dioxo-6,9,12,15-tetraoxa-3,18-diazaicosyl)amino)-2-methyl-N-(5-methylthiazol-2-yl)benzamide]	D (protein percentage degradation <30%)	< 30%			
COc1ccc(NC(=O)c2ccccc2NC(=O)COCCN2CCC(NC(=O)CN3CCN(c4ccc(Nc5ncc6c(C)c(C(C)=O)c(=O)n(C7CCCC7)c6n5)nc4)CC3)CC2)nn1 [CPD-347, 2-(2-(2-(4-(2-(4-(6-((6-Acetyl-8-cyclopentyl-5-methyl-7-oxo-7,8-dihydropyrido[2,3-d]pyrimidin-2-yl)amino)pyridin-3-yl)piperazin-1-yl)acetamido)piperidin-1-yl)ethoxy)acetamido)-N-(6-methoxypyridazin-3-yl)benzamide]	D (protein percentage degradation <30%)	< 30%			
CC(=O)c1c(C)c2cnc(Nc3ccc(N4CCN(CC(=O)NCCOCCOCCOCCOCCOCCNc5ccc(CNc6nc(C)c(C)s6)c(C)c5)CC4)cn3)nc2n(C2CCCC2)c1=O [CPD-166, 2-(4-(6-((6-Acetyl-8-cyclopentyl-5-methyl-7-oxo-7,8-dihydropyrido[2,3-d]pyrimidin-2-yl)amino)pyridin-3-yl)piperazin-1-yl)-N-(17-((4-(((4,5-dimethylthiazol-2-yl)amino)methyl)-3-methylphenyl)amino)-3,6,9,12,15-pentaoxaheptadecyl)acetamide]	B (protein percentage degradation <80%, and >=50%)	30 to 50%			
Cc1nc(NC(=O)c2ccccc2NC(=O)CCCNC(=O)CN2CCN(c3ccc(Nc4ncc5cc(C(=O)N(C)C)n(C6CCCC6)c5n4)nc3)CC2)sc1C [CPD-288, 7-Cyclopentyl-2-((5-(4-(2-((4-((2-((4,5-dimethylthiazol-2-yl)carbamoyl)phenyl)amino)-4-oxobutyl)amino)-2-oxoethyl)piperazin-1-yl)pyridin-2-yl)amino)-N,N-dimethyl-7H-pyrrolo[2,3-d]pyrimidine-6-carboxamide]				A (protein percentage degradation >= 80%)	50 to 80%
CC(=O)c1c(C)c2cnc(Nc3ccc(N4CCN(CC(=O)NCCOCCOCCOCCOCCNc5cccc(C(=O)Nc6nc(C)c(C)s6)c5C)CC4)cn3)nc2n(C2CCCC2)c1=O [CPD-106, 3-((1-(4-(6-((6-Acetyl-8-cyclopentyl-5-methyl-7-oxo-7,8-dihydropyrido[2,3-d]pyrimidin-2-yl)amino)pyridin-3-yl)piperazin-1-yl)-2-oxo-6,9,12,15-tetraoxa-3-azaheptadecan-17-yl)amino)-N-(4,5-dimethylthiazol-2-yl)-2-methylbenzamide]	A (protein percentage degradation >=80%)	50 to 80%			
CC(=O)c1c(C)c2cnc(Nc3ccc(N4CCN(C(=O)CCNc5ccc(C)c(C(=O)Nc6nc(C)c(C)s6)c5)CC4)cn3)nc2n(C2CCCC2)c1=O [CPD-091, 5-((3-(4-(6-((6-Acetyl-8-cyclopentyl-5-methyl-7-oxo-7,8-dihydropyrido[2,3-d]pyrimidin-2-yl)amino)pyridin-3-yl)piperazin-1-yl)-3-oxopropyl)amino)-N-(4,5-dimethylthiazol-2-yl)-2-methylbenzamide]	D (protein percentage degradation <30%)		< 30%		
CC(=O)c1c(C)c2cnc(Nc3ccc(N4CCN(CC(=O)NCCCCCCCCCNC(=O)COc5ccc(C(=O)Nc6ncc(C)s6)c(C)c5)CC4)cn3)nc2n(C2CCCC2)c1=O [CPD-038, 4-(2-((9-(2-(4-(6-((6-Acetyl-8-cyclopentyl-5-methyl-7-oxo-7,8-dihydropyrido[2,3-d]pyrimidin-2-yl)amino)pyridin-3-yl)piperazin-1-yl)acetamido)nonyl)amino)-2-oxoethoxy)-2-methyl-N-(5-methylthiazol-2-yl)benzamide]	D (protein percentage degradation <30%)	< 30%			
CC(=O)c1c(C)c2cnc(Nc3ccc(N4CCN(CC(=O)NCCOCCOCCC(=O)Nc5ccccc5C(=O)Nc5ncc(C)o5)CC4)cn3)nc2n(C2CCCC2)c1=O [CPD-066, 2-(3-(2-(2-(2-(4-(6-((6-Acetyl-8-cyclopentyl-5-methyl-7-oxo-7,8-dihydropyrido[2,3-d]pyrimidin-2-yl)amino)pyridin-3-yl)piperazin-1-yl)acetamido)ethoxy)ethoxy)propanamido)-N-(5-methyloxazol-2-yl)benzamide]	D (protein percentage degradation <30%)	< 30%			
